Measured values as given in ChEMBL document CHEMBL1125906, “Three-dimensional structure-activity relationships and receptor mapping of N1-substituents of quinolone antibacterials” (1991).

Each compound was assayed on Escherichia coli (assay: Biological activity against Escherichia coli N1HJ JC-2 relative to Norfloxacin.).
Format: functional

Compared with `CN1CCN(c2cc3c(cc2F)c(=O)c(C(=O)O)cn3-c2ccc(F)cc2F)CC1`, `CN1CCN(c2cc3c(cc2F)c(=O)c(C(=O)O)cn3-c2ccccc2F)CC1` is lower in activity relative to norfloxacin: 4 for the first, 0.25 for the second.

Compared with `CN1CCN(c2cc3c(cc2F)c(=O)c(C(=O)O)cn3-c2ccc(Br)cc2)CC1`, `Cc1ccc(-n2cc(C(=O)O)c(=O)c3cc(F)c(N4CCN(C)CC4)cc32)cc1` is higher in activity relative to norfloxacin: 0.0312 for the first, 0.25 for the second.

`O=C(O)c1c(=O)c2cc(F)c(N3CCNCC3)cc2n2ccsc12` and `Cc1csc2c(C(=O)O)c(=O)c3cc(F)c(N4CCNCC4)cc3n12` are the same in activity relative to norfloxacin: 4 for the first, 4 for the second.

First: C=CCn1cc(C(=O)O)c(=O)c2cc(F)c(N3CCNCC3)cc21
Second: CCn1cc(C(=O)O)c(=O)c2cc(F)c(N3CCNCC3)cc21 [NORFLOXACIN]
The activity relative to norfloxacin of the first is lower: 0.25 for the first, 4 for the second.

Going from `O=C(O)c1cn(CCO)c2cc(N3CCNCC3)c(F)cc2c1=O` to `O=C(O)c1cn(CCF)c2cc(N3CCNCC3)c(F)cc2c1=O`, the activity relative to norfloxacin rises from 0.25 to 4.

`Cn1cc(C(=O)O)c(=O)c2cc(F)c(N3CCNCC3)cc21` and `CCCn1cc(C(=O)O)c(=O)c2cc(F)c(N3CCNCC3)cc21` are the same in activity relative to norfloxacin: 0.25 for the first, 0.25 for the second.

`CN1CCN(c2cc3c(cc2F)c(=O)c(C(=O)O)c2n3CCS2)CC1` and `CNn1cc(C(=O)O)c(=O)c2cc(F)c(N3CCN(C)CC3)cc21` [AMIFLOXACIN] are the same in activity relative to norfloxacin: 4 for the first, 4 for the second.

Compared with `CN1CCN(c2cc3c(cc2F)c(=O)c(C(=O)O)cn3-c2ccc3c(c2)OCO3)CC1`, `CN1CCN(c2cc3c(cc2F)c(=O)c(C(=O)O)cn3-c2cccc(F)c2)CC1` is lower in activity relative to norfloxacin: 0.25 for the first, 0.0312 for the second.

`CN1CCN(c2cc3c(cc2F)c(=O)c(C(=O)O)cn3-c2ccccc2)CC1` and `Cc1ccccc1-n1cc(C(=O)O)c(=O)c2cc(F)c(N3CCN(C)CC3)cc21` are the same in activity relative to norfloxacin: 0.25 for the first, 0.25 for the second.

First: O=C(O)c1cn(Cc2ccccc2)c2cc(N3CCNCC3)c(F)cc2c1=O
Second: CN(C)CCn1cc(C(=O)O)c(=O)c2cc(F)c(N3CCNCC3)cc21
The activity relative to norfloxacin of the first is higher: 0.25 for the first, 0.0312 for the second.

`C=Cn1cc(C(=O)O)c(=O)c2cc(F)c(N3CCNCC3)cc21` and `O=C(O)c1cn(C2CC2)c2cc(N3CCNCC3)c(F)cc2c1=O` [CIPROFLOXACIN] are the same in activity relative to norfloxacin: 4 for the first, 4 for the second.

Going from `CN1CCN(c2cc3c(cc2F)c(=O)c(C(=O)O)cn3-c2ccc(Cl)cc2)CC1` to `CN1CCN(c2cc3c(cc2F)c(=O)c(C(=O)O)cn3-c2ccc(O)cc2)CC1`, the activity relative to norfloxacin rises from 0.25 to 4.

First: COc1ccc(-n2cc(C(=O)O)c(=O)c3cc(F)c(N4CCN(C)CC4)cc32)cc1
Second: CN1CCN(c2cc3c(cc2F)c(=O)c(C(=O)O)cn3-c2ccc(F)cc2)CC1 [DIFLOXACIN]
The activity relative to norfloxacin of the first is lower: 0.004 for the first, 4 for the second.

First: Cc1cccc(C)c1-n1cc(C(=O)O)c(=O)c2cc(F)c(N3CCN(C)CC3)cc21
Second: C[C@@H]1COc2c(N3CCN(C)CC3)c(F)cc3c(=O)c(C(=O)O)cn1c23 [DEXTROFLOXACINE]
The activity relative to norfloxacin of the first is lower: under 0.004 for the first, 0.25 for the second.

`C[C@H]1COc2c(N3CCN(C)CC3)c(F)cc3c(=O)c(C(=O)O)cn1c23.C[C@H]1COc2c(N3CCN(C)CC3)c(F)cc3c(=O)c(C(=O)O)cn1c23.O` [LEVOFLOXACIN] gave an activity relative to norfloxacin of 4.
